ChEMBL document CHEMBL1142965, “(Aryloxyacetylamino)benzoic acid analogues: A new class of hypoxia-inducible factor-1 inhibitors” (J Med Chem, 2007)
Calls of active or inactive are those of the source. The rule behind the calls is not given here.

Experiments:
[1] = target: Hypoxia inducible factors; HIF-1-alpha, HIF-2-alpha (Homo sapiens, UniProt Q16665+Q99814); test: Inhibition of hypoxia induced HIF1 transcriptional activity in human Hep3B cells by cell-based HRE reporter assay; format: functional; conditions: hep 3b2
AGS = test: cells; conditions: Homo sapiens
Description: Inhibition of hypoxia induced HIF1 transcriptional activity in human AGS cells by cell-based HRE reporter assay

[2] = target: Hypoxia-inducible factor 1-alpha (Homo sapiens) (UniProt Q16665); test: Inhibition of hypoxia-induced HIF1-alpha accumulation in human Hep3B cells; format: functional, cell-based; conditions: Hep 3B2
[3] = Suppression of hypoxia-induced VEGF mRNA expression in human Hep3B cells; format: functional, cell-based; conditions: Hep 3B2
[4] = Suppression of hypoxia-induced EPO mRNA expression in human Hep3B cells; format: functional, cell-based; conditions: Hep 3B2
[5] = Suppression of hypoxia-induced VEGF mRNA expression in human Hep3B cells at 10 uM; format: functional, cell-based; conditions: Hep 3B2
[6] = Suppression of hypoxia-induced EPO mRNA expression in human Hep3B cells at 10 uM; format: functional, cell-based; conditions: Hep 3B2
[7] = Suppression of hypoxia-induced HIF1-alpha mRNA expression in human Hep3B cells; format: functional, cell-based; conditions: Hep 3B2

Sequence of Hypoxia-inducible factor 1-alpha (Homo sapiens) (Q16665 whole entry, looked up): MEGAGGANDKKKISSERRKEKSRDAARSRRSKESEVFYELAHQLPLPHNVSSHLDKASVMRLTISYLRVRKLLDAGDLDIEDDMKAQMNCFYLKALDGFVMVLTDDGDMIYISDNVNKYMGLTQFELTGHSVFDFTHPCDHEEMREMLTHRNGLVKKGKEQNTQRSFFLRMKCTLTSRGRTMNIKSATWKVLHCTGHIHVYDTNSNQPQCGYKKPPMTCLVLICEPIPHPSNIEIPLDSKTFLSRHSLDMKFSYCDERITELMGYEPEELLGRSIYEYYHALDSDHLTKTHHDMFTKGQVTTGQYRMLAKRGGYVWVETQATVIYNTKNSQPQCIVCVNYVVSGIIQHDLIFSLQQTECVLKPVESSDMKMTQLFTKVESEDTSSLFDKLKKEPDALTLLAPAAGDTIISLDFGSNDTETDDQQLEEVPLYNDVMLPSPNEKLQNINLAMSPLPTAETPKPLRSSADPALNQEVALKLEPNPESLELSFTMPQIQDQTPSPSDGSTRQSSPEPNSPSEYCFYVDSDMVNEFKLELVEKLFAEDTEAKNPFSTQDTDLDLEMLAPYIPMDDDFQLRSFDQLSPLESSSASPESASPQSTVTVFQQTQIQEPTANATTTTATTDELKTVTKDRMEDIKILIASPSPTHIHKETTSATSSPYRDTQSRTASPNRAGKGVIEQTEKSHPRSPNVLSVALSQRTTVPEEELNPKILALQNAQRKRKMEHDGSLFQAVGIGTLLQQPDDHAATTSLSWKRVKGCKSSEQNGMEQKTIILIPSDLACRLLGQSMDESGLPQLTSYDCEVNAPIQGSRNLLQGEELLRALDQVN

| Compound | IC50 [1] [µM] | IC50 (AGS) [µM] | other results |
| --- | --- | --- | --- |
| Cc1ccc(OCC(=O)Nc2cccc(C(=O)O)c2)cc1 | > 30 | > 30 | – |
| O=C(COc1ccc(C23CC4CC(CC(C4)C2)C3)cc1)Nc1cccc(C(=O)Nc2ccc3ccccc3c2)c1 | > 30 | > 30 | – |
| CC(C)(C)c1ccc(OCC(=O)Nc2cccc(C(N)=O)c2)cc1 | > 30 | > 30 | – |
| O=C(COc1ccc(Cl)cc1)Nc1cccc(C(=O)O)c1 | > 30 | 10 | – |
| NC(=O)c1cccc(NC(=O)COc2ccccc2)c1 | > 30 | > 30 | – |
| CC(C)(C)c1ccc(OCC(=O)Nc2cccc(C(=O)O)c2)cc1 | 29 | 9.5 | – |
| CN(C)C(=O)c1ccc(O)c(NC(=O)COc2ccc(C34CC5CC(CC(C5)C3)C4)cc2)c1 | > 30 | > 30 | – |
| NC(=O)c1cccc(NC(=O)COc2ccc([N+](=O)[O-])cc2)c1 | > 30 | > 30 | – |
| Cc1ccc(-c2ccc(OCC(=O)Nc3cccc(C(=O)O)c3)cc2)cc1 | 23.2 | > 30 | – |
| O=C(COc1ccc(F)cc1)Nc1cccc(C(=O)O)c1 | > 30 | > 30 | – |
| O=C(COc1ccc(-c2cccc([N+](=O)[O-])c2)cc1)Nc1cccc(C(=O)O)c1 | > 30 | > 30 | – |
| COc1cccc(-c2ccc(OCC(=O)Nc3cccc(C(=O)O)c3)cc2)c1 | > 30 | 35 | – |
| Cc1ccc(OCC(=O)Nc2cccc(C(N)=O)c2)cc1 | > 30 | > 30 | – |
| O=C(COc1ccc(C23CC4CC(CC(C4)C2)C3)cc1)Nc1ccccc1C(=O)O | 10.5 | – | – |
| O=C(COc1ccccc1)Nc1cccc(C(=O)O)c1 | > 30 | > 30 | – |
| COC(=O)c1cccc(NC(=O)COc2ccc(C34CC5CC(CC(C5)C3)C4)cc2)c1 | 9.9 | 7.4 | – |
| CC(=O)c1ccc(OCC(=O)Nc2cccc(C(=O)O)c2)cc1 | > 30 | > 30 | – |
| O=C(COc1ccc(C23CC4CC(CC(C4)C2)C3)cc1)Nc1ccc(C(=O)O)cc1 | > 30 | – | – |
| O=C(COc1ccc(C23CC4CC(CC(C4)C2)C3)cc1)Nc1cccc(C(=O)Nc2ccc(Cl)cc2)c1 | > 30 | 9.5 | – |
| O=C(COc1ccc(-c2cccs2)cc1)Nc1cccc(C(=O)O)c1 | > 30 | > 30 | – |
| O=C(COc1ccc(C23CC4CC(CC(C4)C2)C3)cc1)Nc1cc(C(=O)NCc2ccco2)ccc1O | 12.6 | 5.9 | – |

The remaining compounds from weak to strong by IC50 (AGS), led by results:

| IC50 [1] [µM] | IC50 (AGS) [µM] | Compound | other results |
| --- | --- | --- | --- |
| 7.2 | 3.5 | O=C(COc1ccc(I)cc1)Nc1cccc(C(=O)O)c1 | – |
| 8.2 | 3.1 | O=C(COc1ccc(C23CC4CC(CC(C4)C2)C3)cc1)Nc1cccc(C(=O)NCCc2ccncc2)c1 | – |
| > 30 | 3 | CN(C)CCNC(=O)c1ccc(O)c(NC(=O)COc2ccc(C34CC5CC(CC(C5)C3)C4)cc2)c1 | – |
| 5 | 2.5 | O=C(COc1ccc(C23CC4CC(CC(C4)C2)C3)cc1)Nc1cccc(C(=O)O)c1 | Activity [2]: Dose-dependent effect; Activity [3]: Dose-dependent effect; Activity [4]: Dose-dependent effect; Activity [7]: inactive |
| 14.08 | 2.1 | O=C(COc1ccc(C23CC4CC(CC(C4)C2)C3)cc1)Nc1cccc(C(=O)NCc2ccco2)c1 | – |
| – | 2 | OCc1ccc(-c2nn(Cc3ccccc3)c3ccccc23)o1 | – |
| > 30 | 1.6 | O=C(COc1ccc(Br)cc1)Nc1cccc(C(=O)O)c1 | – |
| > 30 | 1.5 | NC(=O)c1ccc(O)c(NC(=O)COc2ccc(C34CC5CC(CC(C5)C3)C4)cc2)c1 | – |
| 4.3 | 1 | NC(=O)c1cccc(NC(=O)COc2ccc(C34CC5CC(CC(C5)C3)C4)cc2)c1 | Activity [2]: Dose-dependent effect |
| 2.6 | 0.7 | COC(=O)c1ccc(O)c(NC(=O)COc2ccc(C34CC5CC(CC(C5)C3)C4)cc2)c1 | Activity [2]: Dose-dependent effect; Activity [3]: Dose-dependent effect; Activity [4]: Dose-dependent effect; Activity [5]: Active; Activity [6]: Active; Activity [7]: inactive |
| 0.4 | 0.35 | O=C(COc1ccc(C23CC4CC(CC(C4)C2)C3)cc1)Nc1cc(C(=O)O)ccc1O | Activity [2]: Dose-dependent effect |
